According to PMC7684686 (2020):

Key:
[1] = test system: Fa2T (DNA, G4) ACAGGGGTGTGGGGACAGGGGTGTGGGG; assay: FRET melting; conditions: K+ 10 mM (KCl), Na+ 10 mM (cacodylate), Li+ 90 µM [sic]; Na-cacodylate pH 7.2; DNA 0.2 µM, LDR 5 (1 µM ligand); error ± 0.5 °C
[2] = test system: 22AG (DNA, G4) AGGGTTAGGGTTAGGGTTAGGG; assay: photometric titration (Specfit); conditions: K+ (25 mM K2HPO4, 70 mM KCl), K-phosphate pH 7.0, DMSO cosolvent (10% in legend, 5% in methods)
[3] = test system: F21T (DNA, G4) GGGTTAGGGTTAGGGTTAGGG; assay: FRET melting; conditions: K+ 10 mM (KCl), Na+ 10 mM (cacodylate), Li+ 90 µM [sic]; Na-cacodylate pH 7.2; DNA 0.2 µM, LDR 5 (1 µM ligand); error ± 0.5 °C
[4] = test system: a2 (DNA, G4) ACAGGGGTGTGGGGACAGGGGTGTGGGG; assay: photometric titration (Specfit); conditions: K+ (25 mM K2HPO4, 70 mM KCl), K-phosphate pH 7.0, DMSO cosolvent (10% in legend, 5% in methods)
[5] = test system: FmycT (DNA, G4) TGAGGGTGGGTAGGGTGGGTAA; assay: FRET melting; conditions: K+ 10 mM (KCl), Na+ 10 mM (cacodylate), Li+ 90 µM [sic]; Na-cacodylate pH 7.2; DNA 0.2 µM, LDR 5 (1 µM ligand); error ± 0.5 °C
[6] = test system: FkrasT (DNA, G4) AGGGCGGTGTGGGAAGAGGA; assay: FRET melting; conditions: K+ 10 mM (KCl), Na+ 10 mM (cacodylate), Li+ 90 µM [sic]; Na-cacodylate pH 7.2; DNA 0.2 µM, LDR 5 (1 µM ligand); error ± 0.5 °C
[7] = test system: FkitT (DNA, G4) AGGGAGGGCGCTGGGAGGAGGG; assay: FRET melting; conditions: K+ 10 mM (KCl), Na+ 10 mM (cacodylate), Li+ 90 µM [sic]; Na-cacodylate pH 7.2; DNA 0.2 µM, LDR 5 (1 µM ligand); error ± 0.5 °C

ΔTm [1] | log Kb [2] | log Kb ([2]; overall 2:1 constant) | ΔTm [3] | log Kb ([4]; overall 2:1 constant) | log Kb [4] | ΔTm [5] | ΔTm [6] | ΔTm [7] | SMILES
0.0 °C | 5.09 ± 0.13 log (K in M^-1) | 10.8 ± 0.1 log (K in M^-2) | 9.9 °C | 11.1 ± 0.2 log (K in M^-2) |  |  |  |  | COc1ccc2cc3[n+](cc2c1OCCCCCn1cc(Cn2cnc4c(N)ncnc42)nn1)CCc1cc2c(cc1-3)OCO2
−0.1 °C | 5.23 ± 0.09 log (K in M^-1) | 10.7 ± 0.1 log (K in M^-2) | 6.4 °C | 10.6 ± 0.3 log (K in M^-2) |  |  |  |  | COc1ccc2cc3[n+](cc2c1OCCCCn1cc(Cn2cnc4c(N)ncnc42)nn1)CCc1cc2c(cc1-3)OCO2
1.1 °C |  | 10.7 ± 0.1 log (K in M^-2) | 12.9 °C | 11.1 ± 0.1 log (K in M^-2) |  | 5.0 °C | 10.1 °C | 2.7 °C | COc1ccc2cc3[n+](cc2c1OCCCCCCn1cc(Cn2cnc4c(N)ncnc42)nn1)CCc1cc2c(cc1-3)OCO2

Continued, compound first:

SMILES | ΔTm [1] | log Kb [2] | log Kb ([2]; overall 2:1 constant) | ΔTm [3] | log Kb ([4]; overall 2:1 constant) | log Kb [4] | ΔTm [5] | ΔTm [6] | ΔTm [7]
COc1ccc2cc3[n+](cc2c1OCCn1cc(Cn2cnc4c(N)ncnc42)nn1)CCc1cc2c(cc1-3)OCO2 | −0.5 °C | 5.89 ± 0.07 log (K in M^-1) |  | 3.4 °C | 10.3 ± 0.1 log (K in M^-2) | 5.27 ± 0.08 log (K in M^-1) |  |  | 
COc1ccc2cc3[n+](cc2c1OCCCn1cc(Cn2cnc4c(N)ncnc42)nn1)CCc1cc2c(cc1-3)OCO2 |  | 5.64 ± 0.15 log (K in M^-1) | 10.8 ± 0.2 log (K in M^-2) | 6.2 °C | 10.6 ± 0.2 log (K in M^-2) | 5.39 ± 0.14 log (K in M^-1) |  |  | 
